This assay addresses T1, LXRβ (Homo sapiens, UniProt P55055).
T1 construct: Co-transfection expression plasmids, comprising full-length LXRα (pCMX-h LXRα[…] or LXRβ (pCMX-hLXRβ)); expressed in transfected cells; host or cells: CV-1 African Green Monkey Kidney Cells
T1 sequence (P55055 1-460): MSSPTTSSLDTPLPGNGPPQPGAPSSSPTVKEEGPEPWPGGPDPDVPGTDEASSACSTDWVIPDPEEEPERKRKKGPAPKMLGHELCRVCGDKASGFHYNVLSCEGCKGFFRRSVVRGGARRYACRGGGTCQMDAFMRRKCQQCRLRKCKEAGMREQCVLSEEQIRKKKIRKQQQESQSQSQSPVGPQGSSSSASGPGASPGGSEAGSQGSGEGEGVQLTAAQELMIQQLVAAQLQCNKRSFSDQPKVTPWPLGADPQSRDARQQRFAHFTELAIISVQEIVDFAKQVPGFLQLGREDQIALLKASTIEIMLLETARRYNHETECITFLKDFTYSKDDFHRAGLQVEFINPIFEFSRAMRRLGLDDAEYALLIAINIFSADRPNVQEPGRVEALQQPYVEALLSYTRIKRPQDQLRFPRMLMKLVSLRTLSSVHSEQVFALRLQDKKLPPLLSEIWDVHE
T1 sequence (P19793 1-462 partner): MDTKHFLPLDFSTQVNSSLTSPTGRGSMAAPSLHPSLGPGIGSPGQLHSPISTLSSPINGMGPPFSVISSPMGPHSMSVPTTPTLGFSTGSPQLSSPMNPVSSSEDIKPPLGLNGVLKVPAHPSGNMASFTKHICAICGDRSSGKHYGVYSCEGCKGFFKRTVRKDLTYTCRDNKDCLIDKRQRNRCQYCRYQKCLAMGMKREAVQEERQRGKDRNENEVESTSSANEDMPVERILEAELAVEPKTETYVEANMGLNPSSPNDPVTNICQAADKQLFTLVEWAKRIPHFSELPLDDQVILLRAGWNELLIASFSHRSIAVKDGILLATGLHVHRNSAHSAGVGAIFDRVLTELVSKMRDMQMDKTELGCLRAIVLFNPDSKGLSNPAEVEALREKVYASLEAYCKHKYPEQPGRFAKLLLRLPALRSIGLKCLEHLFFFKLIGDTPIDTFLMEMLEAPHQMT
The assay is described as follows: Co-transfection assay (LXRE luciferase reporter), LXRβ. More on the design: % Efficacy: concentration or dose not given beside the values. Particulars: for EC50: CV-1 cells transfected with pCMX-hLXRβ and LXREx1-Tk-Luciferase, 20 hours incubation; for Emax: read-out: % Efficacy. The format is cell-based. An outline of the steps: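 CV-1 / pCMX-hLXRβ + LXREx1-Tk-Luc + β-gal; cpd 20 h, 37 °C, ≤0.5% DMSO; Steady-Glo luminescence. 11-pt ½-log curves, duplicate wells, sigmoidal fit → EC50; % efficacy vs high-control agonist, DMSO low control; mean of ≥2 expts.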
On the technique in general: In a reporter assay the amount or activity of a reporter protein is the signal.

Setting [1] is: LXRβ co-transfection, relative to high control 1-(2,4-difluorobenzyl)-2-oxo-6-(4-phenoxyphenyl)-4-(trifluoromethyl)-1,2-dihydropyridine-3-carbonitrile.

One may read the EC50 as the midpoint of the concentration-response curve.

The compound `Cc1nc(-c2cc(-c3cccc(S(C)(=O)=O)c3)ccc2-n2cc(Cl)nc2C)c(-c2ccc3c(c2)OC(F)(F)O3)o1` [Example 423, 4-(4-(4-chloro-2-methyl-1H-imidazol-1-yl)-3′-(methylsulfonyl)biphenyl-3-yl)-5-(2,2-difluorobenzo[d][1,3]dioxol-5-yl)-2-methyloxazole] had an EC50 of 61 nM. The Emax under setting [1] is 74%.

With `Cc1nc(-c2cc(-c3cc(F)c(CO)c(S(C)(=O)=O)c3)ccc2-n2cc(Cl)nc2C)c(-c2ccc3c(c2)OC(F)(F)O3)o1` [Example 424, (4′-(4-chloro-2-methyl-1H-imidazol-1-yl)-3′-(5-(2,2-difluorobenzo[d][1,3]dioxol-5-yl)-2-methyloxazol-4-yl)-3-fluoro-5-(methylsulfonyl)biphenyl-4-yl)methanol], the response was half-maximal at 46 nM (EC50). In addition, under setting [1], the Emax stood at 59%.

On to `Cc1nc(-c2cc(-c3cccc(S(C)(=O)=O)c3)ccc2-n2cc(C(F)(F)F)nc2C)c(-c2ccc(OCC(F)F)c(F)c2)o1` [Example 425, 5-(4-(2,2-difluoroethoxy)-3-fluorophenyl)-2-methyl-4-(4-(2-methyl-4-(trifluoromethyl)-1H-imidazol-1-yl)-3′-(methylsulfonyl)biphenyl-3-yl)oxazole], for which the EC50 stood at 203 nM. For the same compound, the Emax under setting [1] came to 71%.

Take `Cc1nc(-c2cc(-c3cc(F)c(CO)c(S(C)(=O)=O)c3)ccc2-n2cc(C(F)(F)F)nc2C)c(-c2ccc(OCC(F)F)c(F)c2)o1` [Example 426, (3′-(5-(4-(2,2-difluoroethoxy)-3-fluorophenyl)-2-methyloxazol-4-yl)-3-fluoro-4′-(2-methyl-4-(trifluoromethyl)-1H-imidazol-1-yl)-5-(methylsulfonyl)biphenyl-4-yl)methanol]: the EC50 is 118 nM. The Emax under setting [1] worked out at 92%.

For `Cc1nc(-c2cc(-c3cc(F)c(CO)c(S(C)(=O)=O)c3)ccc2-n2cc(C(F)(F)F)nc2C)c(-c2cccc(Cl)n2)o1` [Example 427, (3′-(5-(6-chloropyridin-2-yl)-2-methyloxazol-4-yl)-3-fluoro-4′-(2-methyl-4-(trifluoromethyl)-1H-imidazol-1-yl)-5-(methylsulfonyl)biphenyl-4-yl)methanol], the EC50 worked out at 143 nM. Besides, the Emax under setting [1] is 63%.

On to `Cc1ncc(-c2oc(C)nc2-c2cc(-c3cc(F)c(CO)c(S(C)(=O)=O)c3)ccc2-n2cc(C(F)(F)F)nc2C)cn1` [Example 428, (3-fluoro-4′-(2-methyl-4-(trifluoromethyl)-1H-imidazol-1-yl)-3′-(2-methyl-5-(2-methylpyrimidin-5-yl)oxazol-4-yl)-5-(methylsulfonyl)biphenyl-4-yl)methanol], for which a half-maximal response (EC50) required 3090 nM. For the same compound, the Emax under setting [1] worked out at 50%.

`Cc1nc(-c2cc(-c3cccc(S(=O)(=O)C4CC4)c3)ccc2-n2cc(C(F)(F)F)nc2C)c(-c2ccc(OC(F)F)c(F)c2)o1` [Example 429, 4-(3′-(cyclopropylsulfonyl)-4-(2-methyl-4-(trifluoromethyl)-1H-imidazol-1-yl)biphenyl-3-yl)-5-(4-(difluoromethoxy)-3-fluorophenyl)-2-methyloxazole] had an EC50 of 74 nM. Moreover, the Emax under setting [1] amounted to 83%.

The compound `Cc1nc(-c2cc(-c3cccc(S(=O)(=O)C(F)F)c3)ccc2-n2cc(C(F)(F)F)nc2C)c(-c2ccc(OC(F)F)c(F)c2)o1` [Example 430, 5-(4-(difluoromethoxy)-3-fluorophenyl)-4-(3′-(difluoromethylsulfonyl)-4-(2-methyl-4-(trifluoromethyl)-1H-imidazol-1-yl)biphenyl-3-yl)-2-methyloxazole] displayed an EC50 of 225 nM. Moreover, the Emax under setting [1] amounted to 88%.

In the case of `Cc1nc(-c2cc(-c3cccc(S(C)(=O)=O)c3)ccc2-n2cc(C(F)(F)F)nc2C)c(-c2ccc(Cl)cn2)o1` [Example 431, 5-(5-chloropyridin-2-yl)-2-methyl-4-(4-(2-methyl-4-(trifluoromethyl)-1H-imidazol-1-yl)-3′-(methylsulfonyl)biphenyl-3-yl)oxazole], the response was half-maximal at 358 nM (EC50). Moreover, the Emax under setting [1] is 85%.

The compound `Cc1cc(-c2oc(C)nc2-c2cc(-c3cc(F)c(CO)c(S(C)(=O)=O)c3)ccc2-n2cc(C(F)(F)F)nc2C)cc(Cl)n1` [Example 432, (3′-(5-(2-chloro-6-methylpyridin-4-yl)-2-methyloxazol-4-yl)-3-fluoro-4′-(2-methyl-4-(trifluoromethyl)-1H-imidazol-1-yl)-5-(methylsulfonyl)biphenyl-4-yl)methanol] had an EC50 of 45 nM. Besides, the “% Efficacy” value under setting [1] was 83%.

Regarding `Cc1nc(-c2cc(-c3cccc(S(C)(=O)=O)c3)ccc2-n2cc(C(F)(F)F)nc2C)c(-c2cc(Cl)ccn2)o1` [Example 434, 5-(4-chloropyridin-2-yl)-2-methyl-4-(4-(2-methyl-4-(trifluoromethyl)-1H-imidazol-1-yl)-3′-(methylsulfonyl)biphenyl-3-yl)oxazole], the EC50 amounted to 462 nM. Also, the Emax under setting [1] worked out at 65%.

In turn, `Cc1nc(-c2cc(-c3ccc(C)c(S(C)(=O)=O)c3)ccc2-n2cc(C(F)(F)F)nc2C)c(-c2ccc(OC(F)F)c(F)c2)o1` [Example 435, 5-(4-(difluoromethoxy)-3-fluorophenyl)-2-methyl-4-(4′-methyl-4-(2-methyl-4-(trifluoromethyl)-1H-imidazol-1-yl)-3′-(methylsulfonyl)biphenyl-3-yl)oxazole] showed an EC50 of 69 nM. In addition, the Emax under setting [1] amounted to 87%.

For `Cc1nc(-c2cc(-c3cccc(S(C)(=O)=O)c3)ccc2-n2cc(C(F)(F)F)nc2C)c(-c2ccc3ccccc3c2)o1` [Example 436, 2-methyl-4-(4-(2-methyl-4-(trifluoromethyl)-1H-imidazol-1-yl)-3′-(methylsulfonyl)biphenyl-3-yl)-5-(naphthalen-2-yl)oxazole], the EC50 is 76 nM. For the same compound, the Emax under setting [1] amounted to 77%.

With `Cc1nc(-c2cc(-c3cc(F)c(CO)c(S(C)(=O)=O)c3)ccc2-n2cc(C(F)(F)F)nc2C)c(-c2ccc3ccccc3c2)o1` [Example 437, (3-fluoro-4′-(2-methyl-4-(trifluoromethyl)-1H-imidazol-1-yl)-3′-(2-methyl-5-(naphthalen-2-yl)oxazol-4-yl)-5-(methylsulfonyl)biphenyl-4-yl)methanol], a half-maximal response (EC50) required 34 nM. The Emax under setting [1] stood at 76%.

In turn, `Cc1nc(-c2cc(-c3cccc(C4(C(N)=O)CC4)c3)ccc2-n2cc(C(F)(F)F)nc2C)c(-c2ccc(OC(F)F)c(F)c2)o1` [Example 438, 1-(3′-(5-(4-(difluoromethoxy)-3-fluorophenyl)-2-methyloxazol-4-yl)-4′-(2-methyl-4-(trifluoromethyl)-1H-imidazol-1-yl)biphenyl-3-yl)cyclopropanecarboxamide] had an EC50 of 1380 nM. Further, the Emax under setting [1] was 65%.

`COc1ncc(-c2oc(C)nc2-c2cc(-c3cccc(S(C)(=O)=O)c3)ccc2-n2cc(C(F)(F)F)nc2C)cc1F` [Example 439, 5-(5-fluoro-6-methoxypyridin-3-yl)-2-methyl-4-(4-(2-methyl-4-(trifluoromethyl)-1H-imidazol-1-yl)-3′-(methylsulfonyl)biphenyl-3-yl)oxazole] yielded an EC50 of 410 nM. Under setting [1], the Emax came to 80%.

Source of the values: patent publication US9834542B2, “LXR modulators” (BRISTOL-MYERS SQUIBB COMPANY, priority 2013, dated 2017).
